Literature values as cited in US20160081962A1, “N[…] DIETARY S[…] ACIDS AND NITRITE” (NITROMEGA CORP., priority 2013, published 2016).

Details: exogenous NO3^− intake 10 mg/kg in humans; in 30 min

For `O=[N+]([O-])O` [NO3^−, nitrate], the “increase of plasma NO2^− concentration” value is listed as “up to four- to five-fold”.
